Measured values taken from patent US8247211B2, “Glycopeptide antibiotics” (American Cyanamid Company, priority 2001, dated 2012).
Converted amounts (≈) assume the structure as drawn.

Assays:
Assay in all cases: In vitro antibacterial evaluation: minimum inhibitory concentration (MIC), broth dilution method
Assay type in all cases: cell-based
Streptococcus sp. = test system: Streptococcus sp.
In short: (§1)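 Inoculum: 5×10^5 CFU/mL. Range: 64-0.06 μg/mL. Medium: Muller-Hinton II […]; NCCLS M7-A2 broth dilution. Endpoint: lowest concentration inhibiting growth. Strains include methicillin-, penicillin- and/or vancomycin-resistant clinical isolates.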

Staphylococcus sp. = details: broth dilution, 18 hours at 35° C.
In short: as §1

Escherichia coli = test system: Escherichia coli
In short: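 MIC read as lowest drug level preventing visible growth. Organisms at 5×10^5 CFU/mL were exposed to a 64-0.06 μg/mL dilution series in Muller-Hinton II […] following NCCLS broth dilution standard M7-A2.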

Enterococcus sp. = test system: Enterococcus sp.
In short: as §1

[1] = broth dilution, inoculum 5×10^5 CFU/mL, 18 hours at 35° C.

MIC Streptococcus agalactiae (GC 4564) (Streptococcus sp.; [1]): <0.06 µg/mL
MIC Streptococcus pneumoniae (ATCC 6301) (Streptococcus sp.; [1]): <0.06 µg/mL
MIC Streptococcus pneumoniae (GC 1894) (Streptococcus sp.; [1]): <0.06 µg/mL
MIC Streptococcus pneumoniae (GC 4565) (Streptococcus sp.; [1]): <0.06 µg/mL
MIC Streptococcus pyogenes (GC 4563) (Streptococcus sp.; [1]): <0.06 µg/mL
MIC Streptococcus pneumoniae (ATCC 6301) (Streptococcus sp.; strain ATCC 6301): <0.06 µg/mL
MIC Streptococcus pneumoniae (GC 1894) (Streptococcus sp.; strain GC 1894): <0.06 µg/mL
MIC Streptococcus pyogenes (GC 4563) (Streptococcus sp.; strain GC 4563): <0.06 µg/mL
MIC Streptococcus agalactiae (GC 4564) (Streptococcus sp.; strain GC 4564): <0.06 µg/mL
MIC Streptococcus pneumoniae (GC 4565) (Streptococcus sp.; strain GC 4565): <0.06 µg/mL
MIC Coagulase Negative Staphylococcus (GC 4547) (Staphylococcus sp.; 5×10^5 CFU/mL): 4 µg/mL (≈ 2.71 µM)
MIC Coagulase Negative Staphylococcus (GC 4548) (Staphylococcus sp.; 5×10^5 CFU/mL): 1 µg/mL (≈ 0.678 µM)
MIC Coagulase Negative Staphylococcus (GC 4549) (Staphylococcus sp.; 5×10^5 CFU/mL): 2 µg/mL (≈ 1.36 µM)
MIC Coagulase Negative Staphylococcus (GC 4551) (Staphylococcus sp.; 5×10^5 CFU/mL): 1 µg/mL (≈ 0.678 µM)
MIC Coagulase Negative Staphylococcus (GC 6257) (Staphylococcus sp.; 5×10^5 CFU/mL): 1 µg/mL (≈ 0.678 µM)
MIC Staphylococcus aureus (ATCC 29213) (Staphylococcus sp.; 5×10^5 CFU/mL): 4 µg/mL (≈ 2.71 µM)
MIC Staphylococcus aureus (GC 1131) (Staphylococcus sp.; 5×10^5 CFU/mL): 4 µg/mL (≈ 2.71 µM)
MIC Staphylococcus aureus (GC 3051) (Staphylococcus sp.; 5×10^5 CFU/mL): 4 µg/mL (≈ 2.71 µM)
MIC Staphylococcus aureus (GC 3053) (Staphylococcus sp.; 5×10^5 CFU/mL): 1 µg/mL (≈ 0.678 µM)
MIC Staphylococcus aureus (GC 4541) (Staphylococcus sp.; 5×10^5 CFU/mL): 2 µg/mL (≈ 1.36 µM)
MIC Staphylococcus aureus (GC 4542) (Staphylococcus sp.; 5×10^5 CFU/mL): 4 µg/mL (≈ 2.71 µM)
MIC Staphylococcus aureus (GC 4544) (Staphylococcus sp.; 5×10^5 CFU/mL): 2 µg/mL (≈ 1.36 µM)
MIC Staphylococcus aureus (GC 4545) (Staphylococcus sp.; 5×10^5 CFU/mL): 4 µg/mL (≈ 2.71 µM)
MIC Staphylococcus aureus-SMITH (GC 4543) (Staphylococcus sp.; 5×10^5 CFU/mL): 4 µg/mL (≈ 2.71 µM)
MIC Staphylococcus aureus (ATCC 29213) (Staphylococcus sp.; strain ATCC 29213): 4 µg/mL (≈ 2.71 µM)
MIC Staphylococcus aureus (GC 1131) (Staphylococcus sp.; strain GC 1131): 4 µg/mL (≈ 2.71 µM)
MIC Staphylococcus aureus (GC 3051) (Staphylococcus sp.; strain GC 3051): 4 µg/mL (≈ 2.71 µM)
MIC Staphylococcus aureus (GC 3053) (Staphylococcus sp.; strain GC 3053): 1 µg/mL (≈ 0.678 µM)
MIC Staphylococcus aureus (GC 4541) (Staphylococcus sp.; strain GC 4541): 2 µg/mL (≈ 1.36 µM)
MIC Staphylococcus aureus (GC 4542) (Staphylococcus sp.; strain GC 4542): 4 µg/mL (≈ 2.71 µM)
MIC Staphylococcus aureus (GC 4544) (Staphylococcus sp.; strain GC 4544): 2 µg/mL (≈ 1.36 µM)
MIC Staphylococcus aureus (GC 4545) (Staphylococcus sp.; strain GC 4545): 4 µg/mL (≈ 2.71 µM)
MIC Escherichia coli (ATCC 25922) (Escherichia coli; strain ATCC 25922): >64 µg/mL
MIC Escherichia coli (GC 4559) (Escherichia coli; strain GC 4559): >64 µg/mL
MIC Escherichi coli (GC 4560) (Escherichia coli; strain GC 4560): 4 µg/mL (≈ 2.71 µM)
MIC Enterococcus avium (GC 4558) (Enterococcus sp.; [1]): 4 µg/mL (≈ 2.71 µM)
MIC Enterococcus faecalis (ATCC 29212) (Enterococcus sp.; [1]): 4 µg/mL (≈ 2.71 µM)
MIC Enterococcus faecalis (GC 2242) (Enterococcus sp.; [1]): 4 µg/mL (≈ 2.71 µM)
MIC Enterococcus faecalis (GC 2691) (Enterococcus sp.; [1]): 4 µg/mL (≈ 2.71 µM)
MIC Enterococcus faecalis (GC 3059) (Enterococcus sp.; [1]): 4 µg/mL (≈ 2.71 µM)
MIC Enterococcus faecalis (GC 4552) (Enterococcus sp.; [1]): 4 µg/mL (≈ 2.71 µM)
MIC Enterococcus faecalis (GC 4553) (Enterococcus sp.; [1]): 4 µg/mL (≈ 2.71 µM)
MIC Enterococcus faecalis (GC 4554) (Enterococcus sp.; [1]): 2 µg/mL (≈ 1.36 µM)
MIC Enterococcus faecalis (GC 6189) (Enterococcus sp.; [1]): 4 µg/mL (≈ 2.71 µM)
MIC Enterococcus faecium (GC 2243) (Enterococcus sp.; [1]): 4 µg/mL (≈ 2.71 µM)
MIC Enterococcus faecium (GC 4556) (Enterococcus sp.; [1]): 4 µg/mL (≈ 2.71 µM)
MIC Enterococcus faecium (GC 4557) (Enterococcus sp.; [1]): 4 µg/mL (≈ 2.71 µM)
MIC Enterococcus faecalis (ATCC 29212) (Enterococcus sp.; strain ATCC 29212): 4 µg/mL (≈ 2.71 µM)
MIC Enterococcus faecalis (GC 2242) (Enterococcus sp.; strain GC 2242): 4 µg/mL (≈ 2.71 µM)
MIC Enterococcus faecium (GC 2243) (Enterococcus sp.; strain GC 2243): 4 µg/mL (≈ 2.71 µM)
MIC Enterococcus faecalis (GC 2691) (Enterococcus sp.; strain GC 2691): 4 µg/mL (≈ 2.71 µM)
MIC Enterococcus faecalis (GC 3059) (Enterococcus sp.; strain GC 3059): 4 µg/mL (≈ 2.71 µM)
MIC Enterococcus faecalis (GC 4552) (Enterococcus sp.; strain GC 4552): 4 µg/mL (≈ 2.71 µM)
MIC Enterococcus faecalis (GC 4553) (Enterococcus sp.; strain GC 4553): 4 µg/mL (≈ 2.71 µM)
MIC Enterococcus faecalis (GC 4554) (Enterococcus sp.; strain GC 4554): 2 µg/mL (≈ 1.36 µM)
MIC Enterococcus faecium (GC 4556) (Enterococcus sp.; strain GC 4556): 4 µg/mL (≈ 2.71 µM)
MIC Enterococcus faecium (GC 4557) (Enterococcus sp.; strain GC 4557): 4 µg/mL (≈ 2.71 µM)
MIC Enterococcus avium (GC 4558) (Enterococcus sp.; strain GC 4558): 4 µg/mL (≈ 2.71 µM)
MIC Enterococcus faecalis (GC 6189) (Enterococcus sp.; strain GC 6189): 4 µg/mL (≈ 2.71 µM)
Structure (SMILES): CC(c1ccccc1)C1NC(=O)CNC(=O)C(CO)NC(=O)C(C(O)C2CNC(=N)N2C2OC(CO)C(O)C(O)C2O)NC(=O)C(C(O)C2CNC(=N)N2)NC(=O)C(Cc2ccc(OC3OC(CO)C(OC4OC5COC(c6cccc(Oc7ccccc7)c6)OC5C(O)C4O)C(O)C3O)cc2)NC1=O (stereo not drawn) [Example 170, Cyclo[glycyl-β-methylphenylalanyl-O-[4-O-[4,6-O-(3-phenoxybenzylidene)hexopyranosyl]-hexopyranosyl]tyrosyl-3-(2-iminoimidazoliclin-4-yl)seryl-3-(3-hexopyranosyl-2-iminoimidazolidin-4-yl)serylseryl]]
MIC Staphylococcus haemolyticus (GC 4546) (Staphylococcus sp.; 5×10^5 CFU/mL): 8 µg/mL (≈ 5.42 µM)
